According to patent US20250032651A1, “[177LU] LUTETIUM-PSMA I&T COMPOSITION AND DOSIMETRY, KIT, METHOD OF MAKING, AND METHOD OF USING THEREOF” (Curium US LLC, priority 2022, published 2025):

Test: Normal organ dosimetry Cycle 1: SPECT/CT, TIACs, OLINDA 2.2.3 absorbed radiation dose
Format: in vivo, human
Conditions: for Absorbed Dose, Mean / Absorbed Dose, max / Absorbed Dose, median / Absorbed Dose, min: Cycle 1, n = 26
Procedure: This Example presents the biodistribution, dosimetry, and pharmacokinetics (PK) results of a PK/Dosimetry sub-study performed as part of a Phase III trial. Twenty-seven (27) patients were administered a target activity of 7.4±10% GBq of ^177Lu-PSMA-I&T and underwent single photon emission computed tomography (SPECT)/computed tomography (CT) imaging at four timepoints (4 h, 24 h, 48 h, and 168 h). Image data was analysed to compute time-activity curves (TACs) and subsequently time-integrated activity coefficients (TIACs) in each organ of interest and in organs showing appreciable and meaningful ^177Lu-PSMA-I&T activity. Organ Level Internal Dose Assessment (OLINDA 2.2.3) was used to compute organ and whole body absorbed radiation doses for each patient.
All participating sites underwent a rigorous site setup process during which all dose calibrators, scanners, and gamma counters used in the sub-study were calibrated. Sites were allowed to enroll patients in the sub-study only after the completion and approval of all site setup processes by Invicro. Patients underwent SPECT/CT imaging, with anatomical coverage typically extending from the salivary glands to the pelvis, following the administration of a targeted 7.4±10% GBq of ^177Lu-PSMA-I&T at cycle 1. SPECT/CT imaging was performed at four timepoints: 4 h, 24 h, 48 h, and 168 h post-injection. Additionally, a subset of patients imaged at Cycle 1 (16 out of 27), were also imaged at Cycle 3 (Table 2).
The imaging data was analyzed using Invicro's VivoQuant software, a validated software used in a 21 CFR § 11-compliant workflow. The general quantification approach was based on the principles detailed in the Medical Internal Radiation Dose (MIRD) Pamphlet No. 16, No 23, and No 26 as appropriate.
Volume of interest (VOI) (kidneys, bladder, liver, lumbar vertebrae L2-L4, lacrimal glands, salivary glands [parotid and submandibular glands], and whole body) were delineated on each dataset by a trained image analyst. […] Organs were segmented either by drawing the entire contour of the organ, or by placing a sphere in a representative region of the organ and then multiplying by the organ's effective mass (based on patient's height and weight). Segmentation methods for each organ are specified in Table 3 and were consistently applied to each patient.
Clearance of the radiopharmaceutical was derived from a data-appropriate fit of each organ's TAC. Depending on the TAC's shape, the data was fitted with the sum of one, two, or three exponentials, or using a rise and fall model. Fitting was performed with in-house Python software. TIACs were calculated through analytical integration of the curve fit extrapolated to infinity. […] A whole-body TAC was derived from delineating the imaged body. The remainder activity was determined by subtracting the cumulative organ TIACs from the whole body TIAC.
Organ TIACs were input into OLINDA 2.2.3 for the computation of organ and whole-body absorbed doses, using International Commission on Radiological Protection (ICRP)-103 weighing factors. The ICRP-89 derived male phantom was used for dose estimation. Organs and body mass as defined by ICRP-89 were scaled based on height and mass using patient effective mass.^4 The voiding bladder model as implemented in OLINDA was used to determine bladder TIAC, assuming a voiding interval of 4 hours. The human alimentary tract model (HAT model) described in ICRP 100 and implemented in OLINDA was used to compute doses to the small intestine, right colon, left colon and rectum for patients showing clearance through the GI tract. The fraction of injected activity (fIA) cleared via the GI tract was determined by taking the peak fIA in the GI tract over all the imaging timepoints. […] The Red Marrow mass in L2-L4 was assumed to be 6.7% of the total red marrow mass.

[1] = Kidneys, 16 patients imaged at cycle 1 and 3
[2] = Lacrimal Glands (OLINDA sphere model), 16 patients imaged at cycle 1 and 3
[3] = Lacrimal Glands, N = 16, OLINDA sphere model
[4] = Left colon, 16 patients imaged at cycle 1 and 3
[5] = Liver, 16 patients imaged at cycle 1 and 3
[6] = Lungs, 16 patients imaged at cycle 1 and 3
[7] = Osteogenic cells, 16 patients imaged at cycle 1 and 3
[8] = Pancreas, 16 patients imaged at cycle 1 and 3

O=C([O-])CC[C@H](NC(=O)N[C@@H](CCCCNC(=O)CCCCCCC(=O)NCCCC[C@@H](NC(=O)[C@@H](Cc1ccccc1)NC(=O)[C@@H](Cc1ccc(O)c(I)c1)NC(=O)CC[C@H](C(=O)[O-])N1CCN(CC(=O)[O-])CCN(CC(=O)[O-])CCN(CC(=O)[O-])CC1)C(=O)[O-])C(=O)[O-])C(=O)[O-].[177Lu+3].[H+].[H+].[H+].[H+].[H+] [^177Lu-PSMA I&T, (3S,7S,26R,29R,32R,37R)-29-benzyl-32-(4-hydroxy-3-iodobenzyl)-5,13,20,28,31,34-hexaoxo-37-(4,7,10-tris(carboxymethyl)-1,4,7,10-tetraazacyclododecan-1-yl)-4,6,12,21,27,30,33-heptaazaheptatriacontane-1,3,7,26,37-pentacarboxylic acid; lutetium-177 (III)]
Absorbed Dose in Cycle 1, min (Heart wall, N = 16): 0.00 Gy/GBq | Absorbed Dose in Cycle 1, Mean [1]: 0.41 Gy/GBq | Absorbed Dose in Cycle 1, max [1]: 0.81 Gy/GBq | Absorbed Dose in Cycle 1, min [1]: 0.17 Gy/GBq | Absorbed Dose, Mean (Kidneys): 0.41 Gy/GBq | Absorbed Dose, max (Kidneys): 0.81 Gy/GBq | Absorbed Dose, median (Kidneys): 0.37 Gy/GBq | Absorbed Dose, min (Kidneys): 0.17 Gy/GBq | Absorbed Dose in Cycle 1, Mean (Kidneys, N = 16): 0.41 Gy/GBq | Absorbed Dose in Cycle 1, max (Kidneys, N = 16): 0.81 Gy/GBq | Absorbed Dose in Cycle 1, min (Kidneys, N = 16): 0.17 Gy/GBq | Absorbed Dose in Cycle 1, Mean [2]: 0.39 Gy/GBq | Absorbed Dose in Cycle 1, max [2]: 1.19 Gy/GBq | Absorbed Dose in Cycle 1, min [2]: 0.04 Gy/GBq | Absorbed Dose, Mean (Lacrimal Glands): 0.40 Gy/GBq | Absorbed Dose, max (Lacrimal Glands): 1.19 Gy/GBq | Absorbed Dose, median (Lacrimal Glands): 0.26 Gy/GBq | Absorbed Dose, min (Lacrimal Glands): 0.04 Gy/GBq | Absorbed Dose in Cycle 1, Mean [3]: 0.39 Gy/GBq | Absorbed Dose in Cycle 1, max [3]: 1.19 Gy/GBq | Absorbed Dose in Cycle 1, min [3]: 0.04 Gy/GBq | Absorbed Dose in Cycle 1, Mean [4]: 0.52 Gy/GBq | Absorbed Dose in Cycle 1, max [4]: 1.53 Gy/GBq | Absorbed Dose in Cycle 1, min [4]: 0.01 Gy/GBq | Absorbed Dose, Mean (Left colon): 0.47 Gy/GBq | Absorbed Dose, max (Left colon): 1.53 Gy/GBq | Absorbed Dose, median (Left colon): 0.41 Gy/GBq | Absorbed Dose, min (Left colon): 0.01 Gy/GBq | Absorbed Dose in Cycle 1, Mean (Left colon, N = 16): 0.52 Gy/GBq | Absorbed Dose in Cycle 1, max (Left colon, N = 16): 1.53 Gy/GBq | Absorbed Dose in Cycle 1, min (Left colon, N = 16): 0.01 Gy/GBq | Absorbed Dose in Cycle 1, Mean [5]: 0.04 Gy/GBq | Absorbed Dose in Cycle 1, max [5]: 0.10 Gy/GBq | Absorbed Dose in Cycle 1, min [5]: 0.01 Gy/GBq | Absorbed Dose, Mean (Liver): 0.04 Gy/GBq | Absorbed Dose, max (Liver): 0.10 Gy/GBq | Absorbed Dose, median (Liver): 0.03 Gy/GBq | Absorbed Dose, min (Liver): 0.01 Gy/GBq | Absorbed Dose in Cycle 1, Mean (Liver, N = 16): 0.04 Gy/GBq | Absorbed Dose in Cycle 1, max (Liver, N = 16): 0.10 Gy/GBq | Absorbed Dose in Cycle 1, min (Liver, N = 16): 0.01 Gy/GBq | Absorbed Dose in Cycle 1, Mean [6]: 0.01 Gy/GBq | Absorbed Dose in Cycle 1, max [6]: 0.07 Gy/GBq | Absorbed Dose in Cycle 1, min [6]: 0.00 Gy/GBq | Absorbed Dose, Mean (Lungs): 0.01 Gy/GBq | Absorbed Dose, max (Lungs): 0.07 Gy/GBq | Absorbed Dose, median (Lungs): 0.01 Gy/GBq | Absorbed Dose, min (Lungs): 0.00 Gy/GBq | Absorbed Dose in Cycle 1, Mean (Lungs, N = 16): 0.01 Gy/GBq | Absorbed Dose in Cycle 1, max (Lungs, N = 16): 0.07 Gy/GBq | Absorbed Dose in Cycle 1, min (Lungs, N = 16): 0.00 Gy/GBq | Absorbed Dose in Cycle 1, Mean [7]: 0.04 Gy/GBq | Absorbed Dose in Cycle 1, max [7]: 0.19 Gy/GBq | Absorbed Dose in Cycle 1, min [7]: 0.00 Gy/GBq | Absorbed Dose, Mean (Osteogenic cells): 0.05 Gy/GBq | Absorbed Dose, max (Osteogenic cells): 0.29 Gy/GBq | Absorbed Dose, median (Osteogenic cells): 0.02 Gy/GBq | Absorbed Dose, min (Osteogenic cells): 0.00 Gy/GBq | Absorbed Dose in Cycle 1, Mean (Osteogenic cells, N = 16): 0.04 Gy/GBq | Absorbed Dose in Cycle 1, max (Osteogenic cells, N = 16): 0.19 Gy/GBq | Absorbed Dose in Cycle 1, min (Osteogenic cells, N = 16): 0.00 Gy/GBq | Absorbed Dose in Cycle 1, Mean [8]: 0.02 Gy/GBq | Absorbed Dose in Cycle 1, max [8]: 0.07 Gy/GBq | Absorbed Dose in Cycle 1, min [8]: 0.00 Gy/GBq | Absorbed Dose, Mean (Pancreas): 0.02 Gy/GBq | Absorbed Dose, max (Pancreas): 0.07 Gy/GBq | Absorbed Dose, median (Pancreas): 0.01 Gy/GBq
